# Results: patent publication US10004718B2, “Erythropoietin expression promoter” (TOHOKU UNIVERSITY, priority 2012, dated 2018)
# Columns and labels:
# HIF-α = HIF-α concentration in Hep3B cells (Total HIF-1α Cell-Based ELISA); set-up: species or system human; conditions: compound 10 μM, 20% O2, 24 hours
# Experimental: The Hep3B cells were seeded at 1×10^4 cells/well to a 24-well cell culture plate and then cultured under normal oxygen (20% O2) for 24 hours. Each of 3 types of compounds (compounds #4, 21, and 35) was mixed at a concentration of 10 μM into RPMI1640 common medium 1. After further culture under normal oxygen (20% O2) for 24 hours, the concentration of HIF-α produced in the medium was measured using Total HIF-1 α Cell-Based ELISA Kit (manufactured by R&D Systems, Inc.). Hep3B cells cultured in the absence of the compound (DMSO added [1%]) (“Control” of FIG. 5) were used as a negative control. Hep3B cells cultured in the presence of HIF activators (FG-4592 [10 μM], DMOG [10 μM], and ciclopirox[10 μM]) (“FG”, “DMOG”, and “Ciclo”, respectively, of FIG. 5) were used as positive controls.
# Leigh cells = experiment: Cell death caused by oxidative stress (BSO) in Leigh syndrome patient fibroblasts; format: cell-based, human; conditions: compound 10 μM, 4 days after BSO treatment
# Experimental: In Examples 2 to 7 and Reference Example 1 below, an erythropoietin-producing human hepatocellular carcinoma cell Hep3B (obtained from ATCC [American Type Culture Collection]) was cultured and maintained under conditions of 5% CO2/20% O2 and 37° C. in an RPMI1640 (manufactured by Life Technologies, Inc./GIBCO) medium containing 100 U/mL penicillin (manufactured by Life Technologies, Inc./GIBCO), 100 μg/mL streptomycin (manufactured by Life Technologies, Inc./GIBCO), and 10% fetal bovine serum (FBS) (manufactured by Life Technologies, Inc./GIBCO) (hereinafter, referred to as “RPMI1640 common medium 1”). In Example 15 below, Leigh syndrome patients were subjected to skin biopsy to obtain skin fibroblast cells, which were then primarily cultured under conditions of 5% CO2/20% O2 and 37° C. in a DMEM low glucose (manufactured by Life Technologies, Inc./GIBCO) medium containing 100 U/mL penicillin (manufactured by Life Technologies, Inc./GIBCO), 100 μg/mL streptomycin (manufactured by Life Technologies, Inc./GIBCO), and 1% FBS (manufactured by Life Technologies, Inc./GIBCO) (hereinafter, referred to as “DMEM low glucose common medium”) to isolate cells (Leigh cells). In Example 13 below, a human kidney-derived cell line HK-2 (obtained from ATCC) was cultured and maintained under conditions of 5% CO2/20% O2 and 37° C. in a DMEM/F12 (manufactured by Life Technologies, Inc./GIBCO) medium containing 100 U/mL penicillin (manufactured by Life Technologies, Inc./GIBCO), 100 μg/mL streptomycin (manufactured by Life Technologies, Inc./GIBCO), and 10% fetal bovine serum (manufactured by Life Technologies, Inc./GIBCO) (hereinafter, referred to as “DMEM/F12 common medium”). In Example 14 below, a rat islet of Langerhans-derived cell line ISN-1e (kindly provided by Hisamitsu Ishihara, Nihon University School of Medicine) was cultured and maintained under conditions of 5% CO2/20% O2 and 37° C. in an RPMI1640 (manufactured by Life Technologies, Inc./GIBCO) medium containing 10 mM HEPES (manufactured by Sigma-Aldrich Corp.), 2 mM glutamine (manufactured by Sigma-Aldrich Corp.), 50 μM β-mercaptoethanol (manufactured by Sigma-Aldrich Corp.), 100 U/mL penicillin (manufactured by Life Technologies, Inc./GIBCO), 100 μg/mL streptomycin (manufactured by Life Technologies, Inc./GIBCO), and 10% FBS (manufactured by Life Technologies, Inc./GIBCO) (hereinafter, referred to as “RPMI1640 common medium 2”).
# The Leigh cells were seeded at 4×10^4 cells/well to a 24-well cell culture plate and then cultured for 24 hours. The glutathione synthesis inhibitor BSO (L-buthionine sulphoximine) (manufactured by Sigma-Aldrich Corp.) was mixed at […] into a medium. After culture for 24 hours in the presence of BSO, each of 5 types of compounds (compounds #2, 4, 5, 21, and 35) was mixed at 10 μM into the medium. After culture for 4 days in the presence of these 5 types of compounds, the number of live cells was measured using Cell Counting Kit-8 (manufactured by Dojindo Laboratories) to calculate the survival rate of the cells (“BSO+#2”, “BSO+#4”, “BSO+#5”, “BSO+#21”, and “BSO+#35” of FIG. 17). […]
# erythropoietin = experiment: Erythropoietin production in vivo in mice, oral administration for 7 days; set-up: species or system mouse; conditions: 7 consecutive days, plasma 24 hours after final administration, vs corn oil, DMSO+corn oil or no administration
# Experimental: A mixed solution (200 μl) of each of 4 types of compounds (compounds #4, 5, 21, and 35) (10 mg/100 μl of DMSO) (10 μl) and corn oil (190 μl) was prepared. This mixed solution (200 μl) was orally administered to each mouse (C57BL/6N 8 W, male, 21-25 g) between 15:00 to 18:00 every day using a sonde. This administration was carried out for 7 consecutive days. Mice orally given corn oil or DMSO and corn oil as well as non-administered mice were used as controls.
# 24 hours after the final administration, each mouse was cervically dislocated, and 500 μl of blood was collected from the heart. Then, an anticoagulant (10 μl of heparin) was added thereto, and the resulting blood was centrifuged (12000 rpm×20 min, 4° C.) to isolate plasma. The plasma concentration […] of erythropoietin was measured using a kit (Quantikine Mouse/Rat Epo Immunoassay, manufactured by R&D Systems, Inc.).
# [1] = tested on: MCA (middle cerebral artery) occlusion mouse models; experiment: Cerebral ischemic injury, MCA occlusion mouse model (TTC staining); format: in vivo; conditions: 40 mg/kg intraperitoneal 4 hours before ischemia, 24 hours after reperfusion, vs DMSO, n=1
# Experimental: Two types of compounds (compounds #4 and 35) (40 mg/kg of mouse body weight) were each intraperitoneally administered to a mouse 4 hours before ischemia (n=1). A vehicle (DMSO) was administered to a control (n=1). Anesthesia was induced in each mouse with 4% halothane and oxygen and maintained by the intraperitoneal administration of ketamine (40 mg/kg) and xylazine (4 mg/kg) at 30-minute intervals. After the induction of systemic anesthesia, bifurcation of the common carotid artery was exposed under a microscope. A 6-0 nylon thread having a silicon-coated tip was inserted from the internal carotid artery toward the central side so that its tip reached the anterior communicating artery. The common carotid artery was further ligated to block blood flow into the middle cerebral artery. After the ischemic burden for 30 minutes, the nylon thread was removed so that the ligated common carotid artery was released to induce reperfusion.
# 24 hours after the reperfusion, each mouse was cervically dislocated and then decapitated to excise the brain. Five coronal sections of the cerebrum having a thickness of 2 mm were prepared from the boundary between the cerebrum and the cerebellum. The coronal sections of the cerebrum were stained with TCC through a reaction at 37° C. for 20 minutes with a TTC solution diluted to 1.5% with PBS. […]
compound,measurement,setting,value
"COc1cc(COc2ccc3[nH]cc(CC(=O)O)c3c2)cc(OC)c1 [compound #35, 5-(3,5-Dimethoxybenzyloxy)-3-indoleacetic acid]",HIF-α concentration in the Hep3B cells,HIF-α,increase the HIF-α concentration
same,cell death of the Leigh cells by BSO,Leigh cells,efficiently suppress the cell death
same,amount of erythropoietin in the mouse blood,erythropoietin,increased
same,volume of the cerebral infarction site,[1],decreased
